Measurements as given in PubChem BioAssay (NCI).
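Cells were grown in 96-well plates and exposed to each compound for 48 hours at five concentrations; endpoints were interpolated linearly between bracketing concentrations, or set to the highest concentration if not reached. Abbreviation: GI50, concentration required for 50% inhibition of growth. TGI is the concentration that stops growth completely.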

What was measured:
Assay in all cases: DTP human tumour cell line panel, 48 h
[1] = system: MDA-MB-231 breast
[2] = system: SK-MEL-5 melanoma
[3] = system: NCI-H522 lung
[4] = system: SF-539 CNS
[5] = system: M14 melanoma
[6] = system: DU-145 prostate
[7] = system: HOP-92 NSCLC
[8] = system: BT-549 breast
[9] = system: OVCAR-8 ovarian
[10] = system: A549 NSCLC
[11] = system: NCI-H460 lung
[12] = system: UACC-257 melanoma
[13] = system: SF-295 CNS
[14] = system: OVCAR-4 ovarian
[15] = system: RXF 393 renal
[16] = system: SNB-19 CNS
[17] = system: COLO 205 colon
[18] = system: MCF7 breast
[19] = system: HL-60(TB) leukemia
[20] = system: NCI/ADR-RES ovarian
[21] = system: HCT-15 colon
[22] = system: TK-10 renal
[23] = system: CCRF-CEM leukemia
[24] = system: UO-31 renal
[25] = system: HS 578T breast
[26] = system: PC-3 prostate
[27] = system: SK-MEL-28 melanoma
[28] = system: SW-620 colon
[29] = system: MALME-3M melanoma
[30] = system: LOX IMVI melanoma
[31] = system: CAKI-1 renal
[32] = system: UACC-62 melanoma
[33] = system: NCI-H226 lung
[34] = system: RPMI-8226 leukemia
[35] = system: SNB-75 CNS
[36] = system: HT29 colon
[37] = system: SN12C renal
[38] = system: MDA-MB-435
[39] = system: U251 CNS
[40] = system: IGROV1 ovarian
[41] = system: SK-MEL-2 melanoma
[42] = system: HCT-116 colon
[43] = system: KM12 colon
[44] = system: A498 renal
[45] = system: NCI-H23 lung
[46] = system: ACHN renal
[47] = system: SF-268 CNS
[48] = system: SK-OV-3 ovarian
[49] = system: OVCAR-3 ovarian
[50] = system: HOP-62 NSCLC
[51] = system: 786-0 renal
[52] = system: OVCAR-5 ovarian
[53] = system: K-562 leukemia
[54] = system: SR leukemia
[55] = system: T-47D breast
[56] = system: EKVX NSCLC
[57] = system: HCC-2998 colon
[58] = system: MOLT-4 leukemia

## Cc1ccc2nc3ccccc3c(NCc3ccc(Cl)cc3)c2c1
[1]
  GI50: 5.16 µM
  TGI: 12.2 µM
[2]
  GI50: 6 µM
  TGI: 12.3 µM
[3]
  GI50: 5.85 µM
  TGI: 14.6 µM
[4]
  GI50: 5.55 µM
  TGI: 12.1 µM
[5]
  GI50: 6.75 µM
  TGI: 13.6 µM
[6]
  GI50: 5.44 µM
  TGI: 11.5 µM
[7]
  GI50: 1.38 µM
  TGI: 5.79 µM
[8]
  GI50: 6.38 µM
  TGI: 13.3 µM
[9]
  GI50: 5.77 µM
  TGI: 16.6 µM
[10]
  GI50: 3.93 µM
  TGI: 12.7 µM
[11]
  GI50: 4.02 µM
  TGI: 11.1 µM
[12]
  GI50: 8.57 µM
  TGI: 16.2 µM
[13]
  GI50: 5.65 µM
  TGI: 11.7 µM
[14]
  GI50: 5.13 µM
  TGI: 11.9 µM
[15]
  GI50: 1.98 µM
  TGI: 8.08 µM
[16]
  GI50: 6.21 µM
  TGI: 12.7 µM
[17]
  GI50: 1.27 µM
  TGI: 3.39 µM
[18]
  GI50: 1.94 µM
  TGI: 8.82 µM
[19]
  GI50: 5.28 µM
  TGI: 13.5 µM
[20]
  GI50: 4.72 µM
  TGI: 12.4 µM
[21]
  GI50: 2.52 µM
  TGI: 8.73 µM
[22]
  GI50: 8.94 µM
  TGI: 16.7 µM
[23]
  GI50: 2.02 µM
  TGI: 8.95 µM
[24]
  GI50: 1.53 µM
  TGI: 8.25 µM
[25]
  GI50: 7.88 µM
  TGI: 20.2 µM
[26]
  GI50: 2.19 µM
  TGI: 8.9 µM
[27]
  GI50: 6.42 µM
  TGI: 13.1 µM
[28]
  GI50: 2.83 µM
  TGI: 9.42 µM
[29]
  GI50: 5.85 µM
  TGI: 12.5 µM
[30]
  GI50: 2.07 µM
  TGI: 7.46 µM
[31]
  GI50: 4.89 µM
  TGI: 11 µM
[32]
  GI50: 6.89 µM
  TGI: 14 µM
[33]
  GI50: 6.77 µM
  TGI: 17 µM
[34]
  GI50: 1.44 µM
  TGI: 4.1 µM
[35]
  GI50: 6.77 µM
  TGI: 13.3 µM
[36]
  GI50: 1.8 µM
  TGI: 7.73 µM
[37]
  GI50: 5.09 µM
  TGI: 12 µM
[38]
  GI50: 6.49 µM
  TGI: 12.9 µM
[39]
  GI50: 3.85 µM
  TGI: 11.6 µM
[40]
  GI50: 2.95 µM
  TGI: 10.2 µM
[41]
  GI50: 8.57 µM
  TGI: 17.3 µM
[42]
  GI50: 2.15 µM
  TGI: 8.27 µM
[43]
  GI50: 6.5 µM
  TGI: 13.5 µM
[44]
  GI50: 5.61 µM
  TGI: 11.9 µM
[45]
  GI50: 5.55 µM
  TGI: 12 µM
[46]
  GI50: 5.44 µM
  TGI: 11.9 µM
[47]
  GI50: 6.91 µM
  TGI: 14.2 µM
[48]
  GI50: 7.7 µM
  TGI: 15.8 µM
[49]
  GI50: 6.31 µM
  TGI: 13 µM
[50]
  GI50: 6.89 µM
  TGI: 16.3 µM
[51]
  GI50: 5.53 µM
  TGI: 12.1 µM
[52]
  GI50: 4.67 µM
  TGI: 11.1 µM
[53]
  GI50: 1.51 µM
  TGI: 5.28 µM
[54]
  GI50: 1.48 µM
  TGI: 3.84 µM
[55]
  GI50: 7.03 µM
  TGI: 19.5 µM
[56]
  GI50: 6.45 µM
  TGI: 13 µM
[57]
  GI50: 1.02 µM
  TGI: 2.02 µM
[58]
  GI50: 1.59 µM
  TGI: 5.5 µM
